From patent US9345781B2, “Targeted dendrimer-drug conjugates” (priority 2009, dated 2016)

What was measured:
rat cardiomyocytes = assay: LDH leakage cell viability assay in rat cardiomyocytes; type: cell-based; conditions: 100 μM eq. DOX, 8 hour incubation, versus blank medium
Protocol: Toxicity of G5-L4-DOX conjugates and free DOX in rat cardiomyocytes was evaluated using the lactate dehydrogenase (LDH) leakage cell viability assay. Briefly, each well was counted for total number of cardiomyocytes before an 8 hour treatment with free DOX or G5-L4-DOX (100 μM eq. DOX) conjugates dissolved in 0.5 mL HBSS. The amount of LDH released to the medium was assayed by mixing […] of the treatment solution in a 96-well plate with the enzyme substrate (1:1) included in the assay kit following the manufacturer's guidelines. […] Amount of LDH leakage for treatment solution and controls were normalized to the number of seeded cells, and all values compared to the positive control (set as 100% LDH leakage reference) to obtain the percentage of LDH leakage as a function of treatment.

[1] = system: tumors of nude tumor bearing mice; assay: Tumor growth in nude tumor bearing mice after intravenous dosing; type: in vivo; conditions: one dose/week for 3 weeks
Protocol: (§1) Nude tumor bearing mice were administered by intravenous injection a single dose of 6, 8, 10, or 12 mg/kg of free DOX (one dose/week for 3 weeks). The mice were sacrificed two weeks after the last administration and the tumors were harvested for analysis. Tumor size was measured and compared to the size of tumors harvested from mice administered a saline control.
The above experiment was repeated with an 8 mg/kg dose of free DOX and two additional test groups of mice: one group of mice were administered a dendrimer conjugate comprising a G5 dendrimer conjugated to DOX (G5-OXY-DOX) comprising an azo linkage comprising the structure of
(§2) Also, in this experiment, instead of being sacrificed two weeks after the last administration, the tumor volumes of the mice were measured one week after the last administration and then measured again four weeks later.

HepG2 cells = assay: Clonogenic survival of HepG2 cells; type: cell-based, human; conditions: 72 hour incubation, equivalent DOX concentration
Protocol: (§3) We compared the anticancer activity of G5-L(x)-DOX conjugates to free DOX as a function of concentration by measuring their effect on clonogenic survival of HepG2 and Hep3B hepatic cancer cells. Briefly, HepG2 and Hep3B cells were seeded at a density of 2.5×10^5 cells/T-25 flask and allowed to adhere overnight before incubating with different concentrations (1 nM-100 μM equivalent concentration of DOX) of free DOX or G5-L(x)-DOX conjugates dissolved in OPTI-MEM solution. […] After 72 hours HepG2 and Hep3B cells were washed with cold PBS, trypsinized using a 0.25% trypsin-EDTA solution and centrifuged at 1,000 rpm for 5 minutes. Cell pellets were suspended in fresh culture medium, counted, and plated in 6-well plates at a seeding density of 500-10,000 cells/well and allowed to grow undisturbed for 14 days under normal culture conditions. The formed colonies were gently washed with cold PBS, treated with 1 mL methanol/glacial acetic acid (75/25) and 0.04% w/v trypan blue for 5 minutes and counted. Plating efficiency (PE) for each cell line was calculated by dividing the number of colonies by the cell seeding density for cells incubated with fresh culture medium (negative control). […] All samples were prepared in triplicate for each seeding density and treatment condition, and results expressed as the average % SF±SEM. […]

[2] = Toxicity and body weight of treated mice; type: in vivo; conditions: one dose/week for 3 weeks
Protocol: as §1, §2

Hep3B cells = assay: Clonogenic survival of Hep3B cells; type: cell-based, human
Protocol: as §3

Compound: COc1cccc2c1C(=O)c1c(O)c3c(c(O)c1C2=O)C[C@@](O)(C(=O)CO)C[C@@H]3O[C@H]1C[C@H](N)[C@H](O)[C@H](C)O1.Cl (relative stereo) [Free DOX, 5,12-Naphthacenedione, 10-[(3-amino-2,3,6-trideoxy-α-L-lyxo-hexopyranosyl)oxy]-7,8,9,10-tetrahydro-6,8,11-trihydroxy-8-(hydroxylacetyl)-1-methoxy-, hydrochloride (8S-cis)]
- LDH leakage / cardiac toxicity (rat cardiomyocytes): nearly double the % of LDH leakage
- LDH leakage / cardiac toxicity (rat cardiomyocytes; listed as free DOX): toxic
- reduction in tumor size versus saline control ([1]; 6 mg/kg i.v.): did not cause any substantial reduction in tumor size
- tumor growth versus control mice ([1]; 8 and 10 mg/kg i.v.): inhibited tumor growth
- IC50 (HepG2 cells): 10 nM
- toxicity to mice ([2]; 10 mg/kg i.v.): slight increase in toxicity
- toxicity to mice ([2]; 12 mg/kg i.v.): too toxic to mice
- fold reduction in IC50 in Hep3B compared to HepG2 cells (Hep3B cells; 72 hours): 5 fold
- IC50 (Hep3B cells; clonogenic survival, 72 hour incubation, equivalent DOX concentration): 2 nM
